Source: paper PMC6271944 (Molecules, 2014)

Assays:
P-gp = biological target: T1, P-gp (Homo sapiens, UniProt P08183); test: P-gp inhibition, calcein-AM fluorometry assay in WM-266-4 cells; format: cell-based; settings: probe calcein-AM (1 μM), all six concentrations 4.1~1,000 μM, response relative to verapamil at 100 μM
T1 construct: host or cells: WM-266-4 human melanoma cells
Procedure: One vial of WM-266-4 cells was thawed and cultured in a 15 cm culture dish overnight. Cells were split the next day and transferred onto a clear bottom 96-well plate with 5.0 × 10^4 cells per well. […] Verapamil was used as a positive control at a concentration of 100 μM and 1% DMSO was used as a negative control. After 30 min of incubation time, calcein-AM diluted with 50 μL culture media without serum was added to a concentration of 1 μM and the sample was incubated for an additional 30 min. The plates were placed in the Flexstation II (Molecular Devices) and fluorescence was measured at excitation and emission wavelengths of 494 and 517 nm, respectively.
The P-gp inhibitor verapamil was used as positive control at a concentration of 100 μM. The experiment was considered valid if an increase in fluorescence greater than 5-fold was observed. For P-gp inhibition, a compound with a response less than 25% of verapamil at 100 μM is normally reported as “negative” at the tested concentration. The percent response value was used to determine and report the P-gp interaction at the tested concentration. A response equal to or greater than 25% of verapamil at 100 μM was considered to be “positive” at the tested concentration.

UGT1A6 = tested on: UGT1A6; set-up: dose or concentration left out as unconfirmed; settings: cited from earlier work
WM-266-4 cells = test: Cytotoxicity on WM-266-4 cells; format: cell-based, human; settings: even at highest concentration
UGT1A9 = tested on: UGT1A9; set-up: dose or concentration left out as unconfirmed; settings: cited from earlier work
UGT1A1 = tested on: UGT1A1; set-up: dose or concentration left out as unconfirmed; settings: cited from earlier work
CYP2C79 = test: CYP inhibition in rat liver microsomes, substrate cocktail, LC-MS/MS (S-mephenytoin); format: in vitro ADME; settings: pH 7.4, probe S-mephenytoin 200 μM, 95% CI in brackets, read-out: IC50 for RLM, CYP2C79 (table row CYP2C19)
From the text: (§1) Positive controls (furafyline for CYP1A2, montelukast for CYP2C8, sulfaphenazole for CYP2C9, S-(+)-N-3-benzylnirvanol for CYP2C19, quinidine for CYP2D6, ketoconazole for CYP3A4) and specific substrates (phenacetin for CYP1A2, paclitaxel for CYP2C8, diclofenac for CYP2C9, S-mephenytoin for CYP2C19, dextromethorphan for CYP2D6, midazolam for CYP3A4) are consistent with our previous papers. The substrates were used at concentrations approximately equal to their respective Michaelis-Menten constant (Km) values: 10 μM phenacetin, 5 μM paclitaxel, 5 μM diclofenac, 200 μM S-mephenytoin, 5 μM dextromethorphan, and 2 μM midazolam. NADP^+ was added after a 15 min preincubation of all other components at 37 °C. After a given incubation time (30 min), the reactions were terminated by addition of 60 μL ice-cold acetonitrile containing gemfibrozil and buspirone as internal standards. Incubation samples were stored at −80 °C until used in liquid chromatography-tandem mass spectrometry (LC-MS/MS) analysis. The mixture was centrifuged at 3,500 rpm for 5 min. The supernatant was mixed with equal volume of a 1:1 mixture of methanol and water and 20 μL of the final mixture was used for LC-MS/ MS analysis. […]
(§2) The CYP inhibition potential were evaluated by measuring the formation of one or more metabolites of the test substrates. […]

CYP2D4 = biological target: T2, CYP2D4 (Rattus norvegicus, UniProt Q64680); test: CYP inhibition in rat liver microsomes, substrate cocktail, LC-MS/MS (dextromethorphan); format: in vitro ADME; settings: pH 7.4, probe dextromethorphan 5 μM, read-out: IC50 for RLM, CYP2D4 (table row CYP2D6)
T2 sequence (Q64680 1-500): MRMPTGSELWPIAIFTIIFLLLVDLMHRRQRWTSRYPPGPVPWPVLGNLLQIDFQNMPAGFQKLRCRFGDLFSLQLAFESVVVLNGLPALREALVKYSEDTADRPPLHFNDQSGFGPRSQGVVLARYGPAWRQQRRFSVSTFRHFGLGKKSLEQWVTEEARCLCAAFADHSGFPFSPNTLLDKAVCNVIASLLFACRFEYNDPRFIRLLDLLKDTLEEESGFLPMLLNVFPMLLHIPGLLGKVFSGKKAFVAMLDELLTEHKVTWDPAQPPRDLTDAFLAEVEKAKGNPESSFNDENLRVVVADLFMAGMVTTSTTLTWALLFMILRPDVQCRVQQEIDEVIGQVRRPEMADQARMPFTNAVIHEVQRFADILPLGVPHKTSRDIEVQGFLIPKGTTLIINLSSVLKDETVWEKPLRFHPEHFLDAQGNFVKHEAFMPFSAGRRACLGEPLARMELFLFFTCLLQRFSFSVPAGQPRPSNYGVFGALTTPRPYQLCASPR
From the text: as §1, §2

T1 sequence (P08183 whole entry): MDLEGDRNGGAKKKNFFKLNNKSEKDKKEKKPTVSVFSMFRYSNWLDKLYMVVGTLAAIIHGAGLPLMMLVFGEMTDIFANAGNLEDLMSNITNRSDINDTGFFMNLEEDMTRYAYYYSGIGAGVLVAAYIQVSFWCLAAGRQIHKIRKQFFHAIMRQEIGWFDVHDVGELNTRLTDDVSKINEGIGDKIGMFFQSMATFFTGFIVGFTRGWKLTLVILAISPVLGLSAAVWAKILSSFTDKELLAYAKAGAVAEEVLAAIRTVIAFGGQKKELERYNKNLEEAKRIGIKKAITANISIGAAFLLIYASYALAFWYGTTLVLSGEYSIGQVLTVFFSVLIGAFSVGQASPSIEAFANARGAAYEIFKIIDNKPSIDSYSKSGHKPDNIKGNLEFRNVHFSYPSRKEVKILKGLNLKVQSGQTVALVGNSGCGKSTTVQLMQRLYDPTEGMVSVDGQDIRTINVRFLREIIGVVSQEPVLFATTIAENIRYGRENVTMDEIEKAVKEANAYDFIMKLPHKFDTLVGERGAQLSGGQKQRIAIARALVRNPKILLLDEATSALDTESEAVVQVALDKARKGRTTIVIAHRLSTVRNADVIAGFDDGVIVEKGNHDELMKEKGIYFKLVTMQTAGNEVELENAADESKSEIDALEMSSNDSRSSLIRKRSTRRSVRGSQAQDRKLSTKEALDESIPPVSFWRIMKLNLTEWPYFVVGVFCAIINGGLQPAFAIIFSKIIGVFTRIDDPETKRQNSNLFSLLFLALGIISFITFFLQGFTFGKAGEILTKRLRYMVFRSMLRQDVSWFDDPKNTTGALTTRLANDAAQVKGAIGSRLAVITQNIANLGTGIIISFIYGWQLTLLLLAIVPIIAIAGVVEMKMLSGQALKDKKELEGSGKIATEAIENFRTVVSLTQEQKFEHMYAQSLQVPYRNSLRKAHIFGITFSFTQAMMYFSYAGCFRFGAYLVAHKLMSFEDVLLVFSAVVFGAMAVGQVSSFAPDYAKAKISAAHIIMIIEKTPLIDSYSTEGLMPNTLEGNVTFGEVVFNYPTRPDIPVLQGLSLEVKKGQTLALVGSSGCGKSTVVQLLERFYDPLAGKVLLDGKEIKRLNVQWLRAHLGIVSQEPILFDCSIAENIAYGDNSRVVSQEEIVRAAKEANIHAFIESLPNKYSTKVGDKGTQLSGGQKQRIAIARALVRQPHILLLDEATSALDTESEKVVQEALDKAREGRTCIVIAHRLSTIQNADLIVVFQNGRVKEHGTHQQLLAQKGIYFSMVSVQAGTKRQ

For O=C(O)[C@H]1O[C@@H](Oc2cc3oc(-c4ccc(O)cc4)cc(=O)c3c(O)c2O)[C@H](O)[C@@H](O)[C@@H]1O [scutellarin, Scutellarin], the inhibition at 60 min (P-gp) is given as less than 25%, the “inhibition towards the activity of UGT1A6” value (UGT1A6) is given as 20.2% and the “cytotoxicity on WM-266-4 cells” value (WM-266-4 cells) is given as “does not show cytotoxicity”. The “inhibition towards the activity of UGT1A9” value (UGT1A9) was 36.1%, the “inhibition towards the activity of UGT1A1” value (UGT1A1) was 48.8% and the IC50 at 30 min (CYP2C79) was 85.6 µM. It also gave an IC50 at 30 min (CYP2D4) greater than 100 µM.
